Here are results for 2 molecules from PMC8751734 (Cell Chemical Biology, 2022).

This assay addresses SARS-CoV-2 PL^pro (Severe acute respiratory syndrome coronavirus 2, UniProt P0DTD1). The format is biochemical.

Consider `CN(C)c1ccc2cc3ccc(N(C)C)cc3nc2c1` [acridine orange base], for which the “dose-dependent inhibition of PL^pro, compared with ACF” value is listed as “less active than the parent compound”.

`Nc1ccc2cc3ccc(N)cc3nc2c1.O=S(=O)(O)O` [acridine-3,6-diamine sulfate]: the “dose-dependent inhibition of PL^pro, compared with ACF” value is given as “less active than the parent compound”.
